From PubChem BioAssay AID179 (DTP/NCI, 2004)
Calls of active or inactive are those of the source.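 The calls were made as follows: active = compounds giving half or more protection of infected cells from virus-caused growth loss, again on retest; inactive = the rest.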 *1 amine or outer side, *2 acyl side, *3 side chain or, on linkers, in order; H or OH if unused. Where a SMILES comes first, the peptide text is derived from it. Bridges are numbered along the chain shown (N, C = ends). [ ]: non-standard residue; d: D form. The star is where a group is joined. X22 = CC(C)C(C)C(C(=O)[*:2])N(C)[*:1]; Picolinoyl(3-OH) = O=C(c1ncccc1O)*; NMePhg = CN[CH](C(=O)O)c1ccccc1; Hyp = O=C(O)[CH]1C[CH](O)CN1; Sar = CNCC(=O)O

Tested on: CEM cells HIV-1 protection, formazan growth assay
Test: NCI AIDS Antiviral Assay
Settings: for IC50: measured here: growth of uninfected CEM cells
Summary of the method: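 Human CEM cells, uninfected and HIV-1-infected, exposed to five drug concentrations; growth measured by soluble formazan assay and scored as percent protection from infection, with protecting compounds retested.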

SMILES	EC50	IC50	outcome
CC(=O)Nc1ccc(OCC(O)CO)cc1 (stereo not drawn)	> 1120 µM	832 µM	–
CCC1C2CC3C4N(C)c5ccccc5C45CC(C2C5O)N3C1O (stereo not drawn)	–	–	inactive
c1ccc(CC2COC(c3cccs3)=N2)cc1 (stereo not drawn)	> 200 µM	126 µM	–
CCC(c1ccccc1)C1NC(=S)NC1=O (stereo not drawn)	> 200 µM	138 µM	–
COC(=O)c1cc2c(s1)C(=O)c1ccccc1-2	> 2.24 µM	> 2.24 µM	–
CC(C)C1CC=NN1C(=O)OC(C)(C)C (stereo not drawn)	> 200 µM	> 200 µM	–
CCOC(=O)CC1(N)CC2c3ccccc3OC(=O)C2C(=O)N1 (stereo not drawn)	> 200 µM	> 200 µM	–
CCC(CS(=O)(=O)O)[N+](=O)[O-] (stereo not drawn)	> 200 µM	> 200 µM	–
C=C(C(=C)P(=S)(C(C)C)C(C)C)P(=S)(C(C)C)C(C)C	> 74.1 µM	> 74.1 µM	–
CN1CCN(c2n[nH]c(=O)c3c2nnn3Cc2ccccc2)CC1	> 200 µM	> 200 µM	–
O=C1/C(=C/c2ccccc2)N=C(c2ccccc2)N1n1c(-c2ccccc2)nc2ccccc2c1=O	> 200 µM	75.9 µM	–
CC(C)CC1NC(=O)C(NC(=O)c2ncccc2O)C(C)OC(=O)C(c2ccccc2)N(C)C(=O)C(C)NC(=O)C(C(C)C(C)C)N(C)C(=O)CN(C)C(=O)C2CC(O)CN2C1=O (stereo not drawn) ({Picolinoyl(3-OH)}-TL[Hyp][Sar][X22]A[NMePhg]; ester 1-C; configuration not given here)	–	–	inactive
CCOC(=O)C(C)[P+](c1ccccc1)(c1ccccc1)c1ccccc1 (stereo not drawn)	> 200 µM	3.09 µM	–
O=C(O)c1c2c(cc3c1CC1(Cc4cc5c(cc4C1=O)CCC5)C3)CCC2 (stereo not drawn)	> 200 µM	72.4 µM	–
CC1(C)CCc2c(cc3c(c2O)CCC(C)(C)O3)O1	> 200 µM	> 200 µM	–
N#CNC(=NCC1CCCO1)Nc1cccnc1 (stereo not drawn)	> 1020 µM	933 µM	–

SMILES	EC50	IC50	outcome
NCCCN(CCCN)CCN(CCN(CCCN)CCCN)CCN(CCCN)CCCN	> 200 µM	57.5 µM	–
CCOC(=O)/C(=C/c1ccccc1)C(=O)c1ccccc1	> 25.7 µM	20 µM	–
O=C(O)CN(CCN(CC(=O)O)CC(=O)O)CC(=O)O.[Cu+2].[Na+]	> 200 µM	8.91 µM	–
CCOC(=O)C1C/C2=C(/CCCCCCCCCC2)SCCCS1 (stereo not drawn)	> 200 µM	26.9 µM	–
CC1(C)O[C@@H]2[C@@H](COC(C)(C)O[C@H]2C2SCCCS2)O1	> 200 µM	> 200 µM	–
S=c1nc2[nH]c3ccc(Br)cc3c2n[nH]1	> 200 µM	27.5 µM	–
O=S(=O)(c1cc(Cl)ccc1Cl)N1CCN(c2cccc(Cl)c2)CC1	–	–	inactive
Cc1nc2ccccc2c(=O)n1/N=C/c1ccc(N(C)C)cc1	> 200 µM	> 200 µM	–
Cc1cccc(C)c1N1C(=O)C(=O)C(c2nc3ccccc3s2)C(=Nc2cccc3c(=O)[nH][nH]c(=O)c23)C1=O (stereo not drawn)	–	–	inactive
Cn1ccn2c3nc4ccccc4nc3c(=O)c(C#N)c12	–	–	inactive
O=C([CH-]C(=O)c1ccccc1)c1ccccc1.O=C([CH-]C(=O)c1ccccc1)c1ccccc1.[OH-].[OH-].[Ti+4]	> 25.7 µM	> 25.7 µM	–
COc1ccccc1OCC(O)CO (stereo not drawn)	–	–	inactive
O=Nc1c(-c2ccccc2)[nH]oc1=O	> 200 µM	36.3 µM	–
COc1ccccc1N=Nc1c(-c2ccccc2)nn(C(=O)CC(=O)Nc2cccc(C)c2)c1-c1ccccc1	> 35.5 µM	20.9 µM	–
O=C1OCC/C1=C\c1ccc(O)cc1	> 1320 µM	240 µM	–
COC(=O)c1ccc(Oc2nc3ccc(C(F)(F)F)cc3nc2-c2ccccc2)cc1	> 200 µM	> 200 µM	–
